{"source": "patent US5849259A", "about": "“3-,8-substituted deuteroporphyrin derivatives, pharmaceutical agents containing the latter and process for their production” (priority 1992, dated 1998)", "tested_on": "DMBA-induced breast cancer", "test": "Signal intensity change in tissues of rats with DMBA-induced breast cancer, Bruker Biospec 2.35 Tesla, MSVE", "format": "in vivo", "parameters": "key to enhancement, Tumor / enhancement, Liver / enhancement, Kidneys / enhancement, Muscle: signal intensity relative to an internal standard", "protocol": "b) On a Bruker Biospec nuclear spin tomograph (2.35 Tesla), the signal intensity change in various tissues of rats with a DMBA-induced breast cancer was studied after i.v. administration of 0.05 mmol/kg or 0.1 mmol of the compound of example 1c (20 mmol/l, pH 7.2; 37° C. in bidistilled water). The measurements took place with a multi slice variable echo sequence (MSVE). Imaging parameters: TR: 400 ms, TE: 25 ms, layer thickness: 4 mm, number of averages: 4/slice, matrix 256^2.\nAfter a preliminary image, 0.05 mmol/kg or 0.1 mmol/kg of the substance was administered and the signal intensity change (relative to an internal standard) was studied.\nThe ^1 H-NMR images of the DMBA-induced breast cancer after administration of 0.1 mmol/kg i.v. after 5 minutes or 3 or 24 hours p.i. are reproduced in FIG. 1."}
{"substance": "N,N'-Bis[9-carboxylato-2,5,8-tris(carboxylatomethyl)-2,5,8-triazanonyl-carbamoyl]-mesoporphyrin-IX-13,17-diamide, digadolinium complex, disodium salt [Example 1c]", "values": [{"measurement": "signal intensity change, kidneys", "setting": "0.05 mmol/kg i.v.", "result": "stronger signal intensity change"}, {"measurement": "signal intensity change, muscle", "setting": "0.05 or 0.1 mmol/kg i.v., up to 24 hours p.i.", "result": "only a slight change"}, {"measurement": "enhancement, Kidneys", "setting": "1 min, 0.1 mmol/kg i.v.", "result": 1.16}, {"measurement": "enhancement, Liver", "setting": "1 min, 0.1 mmol/kg i.v.", "result": 1.55}, {"measurement": "enhancement, Muscle", "setting": "1 min, 0.1 mmol/kg i.v.", "result": 1.46}, {"measurement": "enhancement, Tumor", "setting": "1 min, 0.1 mmol/kg i.v.", "result": 2.48}, {"measurement": "enhancement, Kidneys", "setting": "5 min, 0.05 mmol/kg i.v.", "result": 2.57}, {"measurement": "enhancement, Liver", "setting": "5 min, 0.05 mmol/kg i.v.", "result": 1.48}, {"measurement": "enhancement, Muscle", "setting": "5 min, 0.05 mmol/kg i.v.", "result": 1.34}, {"measurement": "enhancement, Tumor", "setting": "5 min, 0.05 mmol/kg i.v.", "result": 1.88}, {"measurement": "signal intensity change, liver tissue and tumors", "setting": "5 minutes p.i., 0.05 or 0.1 mmol/kg i.v.", "result": "marked signal intensity increase"}, {"measurement": "enhancement, Kidneys", "setting": "15 min, 0.05 mmol/kg i.v.", "result": 2.81}, {"measurement": "enhancement, Liver", "setting": "15 min, 0.05 mmol/kg i.v.", "result": 1.29}, {"measurement": "enhancement, Muscle", "setting": "15 min, 0.05 mmol/kg i.v.", "result": 1.26}, {"measurement": "enhancement, Tumor", "setting": "15 min, 0.05 mmol/kg i.v.", "result": 1.97}, {"measurement": "enhancement, Kidneys", "setting": "15 min, 0.1 mmol/kg i.v.", "result": 2.36}, {"measurement": "enhancement, Liver", "setting": "15 min, 0.1 mmol/kg i.v.", "result": 1.61}, {"measurement": "enhancement, Muscle", "setting": "15 min, 0.1 mmol/kg i.v.", "result": 1.30}, {"measurement": "enhancement, Tumor", "setting": "15 min, 0.1 mmol/kg i.v.", "result": 2.40}, {"measurement": "enhancement, Kidneys", "setting": "26 min, 0.1 mmol/kg i.v.", "result": 2.33}, {"measurement": "enhancement, Liver", "setting": "26 min, 0.1 mmol/kg i.v.", "result": 1.45}, {"measurement": "enhancement, Muscle", "setting": "26 min, 0.1 mmol/kg i.v.", "result": 1.37}, {"measurement": "enhancement, Tumor", "setting": "26 min, 0.1 mmol/kg i.v.", "result": 2.41}, {"measurement": "enhancement, Kidneys", "setting": "30 min, 0.05 mmol/kg i.v.", "result": 2.94}, {"measurement": "enhancement, Liver", "setting": "30 min, 0.05 mmol/kg i.v.", "result": 1.42}, {"measurement": "enhancement, Muscle", "setting": "30 min, 0.05 mmol/kg i.v.", "result": 1.22}, {"measurement": "enhancement, Tumor", "setting": "30 min, 0.05 mmol/kg i.v.", "result": 1.71}, {"measurement": "enhancement, Kidneys", "setting": "40 min, 0.1 mmol/kg i.v.", "result": 2.38}, {"measurement": "enhancement, Liver", "setting": "40 min, 0.1 mmol/kg i.v.", "result": 1.51}, {"measurement": "enhancement, Muscle", "setting": "40 min, 0.1 mmol/kg i.v.", "result": 1.23}, {"measurement": "enhancement, Tumor", "setting": "40 min, 0.1 mmol/kg i.v.", "result": 2.34}, {"measurement": "enhancement, Kidneys", "setting": "45 min, 0.05 mmol/kg i.v.", "result": 2.84}, {"measurement": "enhancement, Liver", "setting": "45 min, 0.05 mmol/kg i.v.", "result": 1.49}, {"measurement": "enhancement, Muscle", "setting": "45 min, 0.05 mmol/kg i.v.", "result": 1.12}, {"measurement": "enhancement, Tumor", "setting": "45 min, 0.05 mmol/kg i.v.", "result": 1.71}, {"measurement": "enhancement, Kidneys", "setting": "60 min, 0.05 mmol/kg i.v.", "result": 2.53}, {"measurement": "enhancement, Liver", "setting": "60 min, 0.05 mmol/kg i.v.", "result": 1.52}, {"measurement": "enhancement, Muscle", "setting": "60 min, 0.05 mmol/kg i.v.", "result": 1.10}, {"measurement": "enhancement, Tumor", "setting": "60 min, 0.05 mmol/kg i.v.", "result": 1.50}, {"measurement": "enhancement, Kidneys", "setting": "60 min, 0.1 mmol/kg i.v.", "result": 1.86}, {"measurement": "enhancement, Liver", "setting": "60 min, 0.1 mmol/kg i.v.", "result": 1.36}, {"measurement": "enhancement, Muscle", "setting": "60 min, 0.1 mmol/kg i.v.", "result": 1.23}, {"measurement": "enhancement, Tumor", "setting": "60 min, 0.1 mmol/kg i.v.", "result": 2.34}, {"measurement": "enhancement, Kidneys", "setting": "71 min, 0.1 mmol/kg i.v.", "result": 1.66}, {"measurement": "enhancement, Liver", "setting": "71 min, 0.1 mmol/kg i.v.", "result": 1.62}, {"measurement": "enhancement, Muscle", "setting": "71 min, 0.1 mmol/kg i.v.", "result": 1.17}, {"measurement": "enhancement, Tumor", "setting": "71 min, 0.1 mmol/kg i.v.", "result": 2.36}, {"measurement": "enhancement, Kidneys", "setting": "75 min, 0.05 mmol/kg i.v.", "result": 2.47}, {"measurement": "enhancement, Liver", "setting": "75 min, 0.05 mmol/kg i.v.", "result": 1.50}, {"measurement": "enhancement, Muscle", "setting": "75 min, 0.05 mmol/kg i.v.", "result": 1.04}, {"measurement": "enhancement, Tumor", "setting": "75 min, 0.05 mmol/kg i.v.", "result": 1.71}, {"measurement": "enhancement, Kidneys", "setting": "85 min, 0.1 mmol/kg i.v.", "result": 1.64}, {"measurement": "enhancement, Liver", "setting": "85 min, 0.1 mmol/kg i.v.", "result": 1.48}, {"measurement": "enhancement, Muscle", "setting": "85 min, 0.1 mmol/kg i.v.", "result": 1.32}, {"measurement": "enhancement, Tumor", "setting": "85 min, 0.1 mmol/kg i.v.", "result": 2.39}, {"measurement": "enhancement, Kidneys", "setting": "90 min, 0.05 mmol/kg i.v.", "result": 2.15}, {"measurement": "enhancement, Liver", "setting": "90 min, 0.05 mmol/kg i.v.", "result": 1.53}, {"measurement": "enhancement, Muscle", "setting": "90 min, 0.05 mmol/kg i.v.", "result": 1.11}, {"measurement": "enhancement, Tumor", "setting": "90 min, 0.05 mmol/kg i.v.", "result": 1.62}, {"measurement": "enhancement, Kidneys", "setting": "105 min, 0.05 mmol/kg i.v.", "result": 2.63}, {"measurement": "enhancement, Liver", "setting": "105 min, 0.05 mmol/kg i.v.", "result": 1.63}, {"measurement": "enhancement, Muscle", "setting": "105 min, 0.05 mmol/kg i.v.", "result": 1.07}, {"measurement": "enhancement, Tumor", "setting": "105 min, 0.05 mmol/kg i.v.", "result": 1.75}, {"measurement": "enhancement, Kidneys", "setting": "115 min, 0.1 mmol/kg i.v.", "result": 2.43}, {"measurement": "enhancement, Liver", "setting": "115 min, 0.1 mmol/kg i.v.", "result": 1.62}, {"measurement": "enhancement, Muscle", "setting": "115 min, 0.1 mmol/kg i.v.", "result": 1.23}, {"measurement": "enhancement, Tumor", "setting": "115 min, 0.1 mmol/kg i.v.", "result": 2.38}, {"measurement": "enhancement, Kidneys", "setting": "150 min, 0.1 mmol/kg i.v.", "result": 2.27}, {"measurement": "enhancement, Liver", "setting": "150 min, 0.1 mmol/kg i.v.", "result": 1.48}, {"measurement": "enhancement, Muscle", "setting": "150 min, 0.1 mmol/kg i.v.", "result": 1.17}, {"measurement": "enhancement, Tumor", "setting": "150 min, 0.1 mmol/kg i.v.", "result": 2.31}, {"measurement": "enhancement, Kidneys", "setting": "160 min, 0.05 mmol/kg i.v.", "result": 2.38}, {"measurement": "enhancement, Liver", "setting": "160 min, 0.05 mmol/kg i.v.", "result": 1.47}, {"measurement": "enhancement, Muscle", "setting": "160 min, 0.05 mmol/kg i.v.", "result": 1.07}, {"measurement": "enhancement, Tumor", "setting": "160 min, 0.05 mmol/kg i.v.", "result": 1.69}, {"measurement": "enhancement, Kidneys", "setting": "180 min, 0.05 mmol/kg i.v.", "result": 2.54}, {"measurement": "enhancement, Liver", "setting": "180 min, 0.05 mmol/kg i.v.", "result": 1.57}, {"measurement": "enhancement, Muscle", "setting": "180 min, 0.05 mmol/kg i.v.", "result": 1.02}, {"measurement": "enhancement, Tumor", "setting": "180 min, 0.05 mmol/kg i.v.", "result": 1.67}, {"measurement": "enhancement, Kidneys", "setting": "180 min, 0.1 mmol/kg i.v.", "result": 2.18}, {"measurement": "enhancement, Liver", "setting": "180 min, 0.1 mmol/kg i.v.", "result": 1.59}, {"measurement": "enhancement, Muscle", "setting": "180 min, 0.1 mmol/kg i.v.", "result": 1.22}, {"measurement": "enhancement, Tumor", "setting": "180 min, 0.1 mmol/kg i.v.", "result": 2.38}, {"measurement": "enhancement, Kidneys", "setting": "24 hours, 0.05 mmol/kg i.v.", "result": 1.17}, {"measurement": "enhancement, Liver", "setting": "24 hours, 0.05 mmol/kg i.v.", "result": 0.93}, {"measurement": "enhancement, Muscle", "setting": "24 hours, 0.05 mmol/kg i.v.", "result": 1.07}, {"measurement": "enhancement, Tumor", "setting": "24 hours, 0.05 mmol/kg i.v.", "result": 1.31}, {"measurement": "enhancement, Kidneys", "setting": "24 hours, 0.1 mmol/kg i.v.", "result": 0.94}, {"measurement": "enhancement, Liver", "setting": "24 hours, 0.1 mmol/kg i.v.", "result": 1.33}, {"measurement": "enhancement, Muscle", "setting": "24 hours, 0.1 mmol/kg i.v.", "result": 1.15}, {"measurement": "enhancement, Tumor", "setting": "24 hours, 0.1 mmol/kg i.v.", "result": 2.02}]}
